Experimental findings from patent US20240148821A1, “PHARMACEUTICAL USE OF CYCLIC PEPTIDE COMPOUND” (CHUGAI SEIYAKU KABUSHIKI KAISHA, priority 2021, published 2024) are described below.

Structures are written as SMILES. Numbered stars: 1 amine (or outer) side, 2 acyl side, 3 side chain; on linkers, the order of the positions; unused ones are H or OH. Bridge positions count the residues as written; N and C are the ends. Square brackets hold non-standard residues; d marks the D form. Peptide text beside a SMILES is read from it. * marks the point of attachment. hPhe(3-Cl-4-CF3) = N[C@@H](CCc1ccc(C(F)(F)F)c(Cl)c1)C(=O)O; hPhe(3-F,4-CF3) = N[C@@H](CCc1ccc(C(F)(F)F)c(F)c1)C(=O)O; NEtPhe(4-CF3) = CCN[C@@H](Cc1ccc(C(F)(F)F)cc1)C(=O)O; NMePhe(4-CF3) = CN[C@@H](Cc1ccc(C(F)(F)F)cc1)C(=O)O; NPrAsp = CCCN([C@@H](CC(=O)[*:3])C(=O)[*:2])[*:1]; X25 = COc1ccc(C[C@@H](C(=O)[*:2])N(C)[*:1])cn1; NMePhe(4-Me) = CN[C@@H](Cc1ccc(C)cc1)C(=O)O; NMedβ3hAla = C[C@H](CC(=O)[*:2])N(C)[*:1]; NMeGly(cPent) = CN[C@H](C(=O)O)C1CCCC1; NMe3Pal = CN[C@@H](Cc1cccnc1)C(=O)O; NMeGly(cBu) = CN[C@H](C(=O)O)C1CCC1; NMeCha = CN[C@@H](CC1CCCCC1)C(=O)O; Hyp = O=C(O)[C@@H]1C[C@@H](O)CN1; NMeChg = CN[C@H](C(=O)O)C1CCCCC1; NMeI = CC[C@H](C)[C@H](NC)C(=O)O; NMeE = CN[C@@H](CCC(=O)O)C(=O)O; NMeD = CN[C@@H](CC(=O)O)C(=O)O; NMeL = CN[C@@H](CC(C)C)C(=O)O; NMeV = CN[C@H](C(=O)O)C(C)C; d(β3hA) = C[C@@H](N)CC(=O)O; NMeS = CN[C@@H](CO)C(=O)O; NMeA = CN[C@@H](C)C(=O)O; Piperidide = C1CCN(*)CC1; Pyrrolidide = C1CCN(*)C1; Ac5c = NC1(C(=O)O)CCCC1; Aze = O=C(O)[C@@H]1CCN1; Ac4c = NC1(C(=O)O)CCC1; Sar = CNCC(=O)O; Propyl = CCC* A value given as a limit tells only on which side of the number the result lay.

For experiment [1], the system named is Human pancreatic cancer cell line AsPC-1 (G12D mutation Kras). Description: AsPC-1 cell growth inhibition (AsPC-1 CGI). It counts as cell-based. The conditions noted are these: read-out: AsPC-1 cell growth inhibition, 50% growth inhibitory concentration (IC50 value); 96 hours, CellTiter-Glo, values classified in ranges. (In general: ATP-based viability assays read luminescence as a measure of living cells.)
Procedure: Test compounds were serially dilated with dimethyl sulfoxide, and 200 nL was then dispensed to a U-bottom 96-well plate using Labcyte Echo. […] The cell suspension was dispensed to a. plate containing a test compound at 100 μL per well and incubated at 37° C. in a 5% carbon dioxide gas incubator. 96 hours later, 80 μL of CellTiter-Glo (Promega) was added to each well and fluorescence was measured.

Experiment [2] deals with protein-protein interaction between Kras and SOS1 (biotin-tagged human Kras loaded with GDP, His-tagged human SOS1) (Homo sapiens (Human), UniProt P01116, G12D). Put plainly: Protein-protein interaction inhibition between Kras and SOS1 (KrasG12D-SOS PPI) using AlphaScreen.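 Further: kras produced in E. coli, Ni-coupled donor beads and streptavidin acceptor beads, excitation 680 nm with emission detected at 520–620 nm via singlet oxygen transfer.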 The conditions noted are these: AlphaScreen; biotin-tagged human Kras loaded with GDP, His-tagged human SOS1; read-out: KRAS G12D-SOS PPI IC50. It counts as biochemical.

Take `CC[C@H](C)[C@@H]1NC(=O)[C@H](C)N(C)C(=O)C[C@@H](C(=O)N2CCCCC2)N(C)C(=O)[C@H](C(C)C)N(C)C(=O)C2(CCCC2)NC(=O)[C@H](Cc2cccnc2)N(C)C(=O)[C@H](CCc2ccc(C(F)(F)F)c(Cl)c2)NC(=O)CN(C)C(=O)[C@H](CC2CCCCC2)N(C)C(=O)CN(C)C(=O)CN(C)C1=O` [Compound 519] ([NMeA]I[Sar][Sar][NMeCha][Sar][hPhe(3-Cl-4-CF3)][NMe3Pal][Ac5c][NMeV][NMeD]-Piperidide; lactam N-11): the IC50 is more than 500 nM in experiment [1] and 2 nM in experiment [2].
With `CCCN1C(=O)[C@H](C2CCCC2)N(C)C(=O)C2(CCCC2)NC(=O)[C@@H]2CCCN2C(=O)[C@H](CCc2ccc(C(F)(F)F)c(Cl)c2)NC(=O)CN(C)C(=O)[C@H](C2CCC2)N(C)C(=O)[C@@H]2CCN2C(=O)[C@H](C)N(C)C(=O)[C@H]([C@@H](C)CC)NC(=O)[C@H](CC(C)C)N(C)C(=O)C[C@H]1C(=O)N1CCCCC1` [Compound 524] ([NMeL]I[NMeA][Aze][NMeGly(cBu)][Sar][hPhe(3-Cl-4-CF3)]P[Ac5c][NMeGly(cPent)][NPrAsp]-Piperidide; lactam N-11), the IC50 was more than 500 nM in experiment [1] and 82 nM in experiment [2].
For `CCCOC[C@H]1C(=O)N(C)CC(=O)N[C@@H](CCc2ccc(C(F)(F)F)c(Cl)c2)C(=O)N2CCC[C@H]2C(=O)NC2(CCCC2)C(=O)N(C)[C@@H]([C@@H](C)CC)C(=O)N(C)[C@H](C)CC(=O)N(C)[C@@H](CC(C)C)C(=O)N[C@@H]([C@@H](C)CC)C(=O)N(C)[C@@H](C)C(=O)N2CC[C@H]2C(=O)N1C` [Compound 529] (cyclo([Ac5c][NMeI][NMedβ3hAla][NMeL]I[NMeA][Aze][NMeS](Propyl)[Sar][hPhe(3-Cl-4-CF3)]P)) the same measures were not above 20 nM and 8.2 nM.
The matching figures for `CCO[C@@H]1C[C@H]2C(=O)NC3(CCC3)C(=O)N(C)[C@@H]([C@@H](C)CC)C(=O)N(C)[C@H](C)CC(=O)N(C)[C@@H](CC(C)C)C(=O)N[C@@H]([C@@H](C)CC)C(=O)N(C)[C@@H](C)C(=O)N3CC[C@H]3C(=O)N(CC)[C@@H](Cc3ccc(C(F)(F)F)cc3)C(=O)N(C)CC(=O)N[C@@H](CCc3ccc(C(F)(F)F)c(Cl)c3)C(=O)N2C1` [Compound 547] (cyclo([Ac4c][NMeI][NMedβ3hAla][NMeL]I[NMeA][Aze][NEtPhe(4-CF3)][Sar][hPhe(3-Cl-4-CF3)][Hyp](Et))): not above 20 nM and 1 nM.
The matching figures for `CC[C@H](C)[C@@H]1NC(=O)[C@H](CC(C)C)N(C)C(=O)C[C@@H](C(=O)N(C)C)N(C)C(=O)[C@H]([C@@H](C)CC)N(C)C(=O)C2(CCCC2)NC(=O)[C@@H]2CCCN2C(=O)[C@H](CCc2ccc(C(F)(F)F)c(F)c2)NC(=O)CN(C)C(=O)[C@H](C2CCCC2)N(C)C(=O)[C@@H]2CCN2C(=O)[C@H](C)N(C)C1=O` [Compound 555] ([NMeL]I[NMeA][Aze][NMeGly(cPent)][Sar][hPhe(3-F,4-CF3)]P[Ac5c][NMeI][NMeD]-NMe2; lactam N-11): not above 20 nM and 2.6 nM.
Take `CCCOC[C@H]1C(=O)N(C)CC(=O)N[C@@H](CCc2ccc(C(F)(F)F)c(Cl)c2)C(=O)N2CCC[C@H]2C(=O)NC2(CCCC2)C(=O)N(C)[C@@H]([C@@H](C)CC)C(=O)N(C)[C@H](C(=O)N2CCCC2)CC(=O)N(C)[C@@H](CC(C)C)C(=O)N[C@@H]([C@@H](C)CC)C(=O)N(C)[C@@H](C)C(=O)N2CC[C@H]2C(=O)N1C` [Compound 567] ([NMeL]I[NMeA][Aze][NMeS](Propyl)[Sar][hPhe(3-Cl-4-CF3)]P[Ac5c][NMeI][NMeD]-Pyrrolidide; lactam N-11): the IC50 is not above 20 nM in experiment [1] and 1.5 nM in experiment [2].
The matching figures for `CC[C@H](C)[C@@H]1NC(=O)[C@H](CC(C)C)N(C)C(=O)C[C@@H](C)N(C)C(=O)[C@H](C2CCCC2)N(C)C(=O)C2(CCCC2)NC(=O)[C@@H]2CCCN2C(=O)[C@H](CCc2ccc(C(F)(F)F)c(Cl)c2)NC(=O)CN(C)C(=O)[C@H](Cc2ccc(C(F)(F)F)cc2)N(C)C(=O)[C@@H]2CCN2C(=O)[C@H](C)N(C)C1=O` [Compound 587] (cyclo([Ac5c][NMeGly(cPent)][NMedβ3hAla][NMeL]I[NMeA][Aze][NMePhe(4-CF3)][Sar][hPhe(3-Cl-4-CF3)]P)): not above 20 nM and 1.2 nM.
Turning to `CC[C@H](C)[C@@H]1NC(=O)[C@H](CC(C)C)N(C)C(=O)C[C@@H](C(=O)N2CCCC2)N(C)C(=O)[C@H](C2CCCC2)N(C)C(=O)C2(CCCC2)NC(=O)[C@@H]2CCCN2C(=O)[C@H](CCc2ccc(C(F)(F)F)c(Cl)c2)NC(=O)CN(C)C(=O)[C@H](Cc2ccc(C(F)(F)F)cc2)N(C)C(=O)[C@@H]2CCN2C(=O)[C@H](C)N(C)C1=O` [Compound 589] ([NMeL]I[NMeA][Aze][NMePhe(4-CF3)][Sar][hPhe(3-Cl-4-CF3)]P[Ac5c][NMeGly(cPent)][NMeD]-Pyrrolidide; lactam N-11), the IC50 in experiment [1] is not above 20 nM; in experiment [2], 0.49 nM.
For `CC[C@H](C)[C@@H]1NC(=O)[C@H](CC(C)C)N(C)C(=O)C[C@@H](C(=O)N2CCCCC2)N(C)C(=O)[C@H](C2CCCCC2)N(C)C(=O)C2(CCCC2)NC(=O)[C@H](CCC(=O)NC)N(C)C(=O)[C@H](CCc2ccc(C(F)(F)F)c(Cl)c2)NC(=O)CN(C)C(=O)[C@H](CC2CCCCC2)N(C)C(=O)CN(C)C(=O)CN(C)C1=O` [Compound 590] ([NMeL]I[Sar][Sar][NMeCha][Sar][hPhe(3-Cl-4-CF3)][NMeE](NHMe)[Ac5c][NMeChg][NMeD]-Piperidide; lactam N-11) the same measures were more than 500 nM and 1.4 nM.
The matching figures for `CC[C@H](C)[C@@H]1NC(=O)[C@H](CC(C)C)N(C)C(=O)C[C@@H](C(=O)N2CCCCC2)N(C)C(=O)[C@H](C2CCCCC2)N(C)C(=O)C2(CCCC2)NC(=O)[C@H](Cc2ccc(OC)nc2)N(C)C(=O)[C@H](CCc2ccc(C(F)(F)F)c(Cl)c2)NC(=O)CN(C)C(=O)[C@H](CC2CCCCC2)N(C)C(=O)CN(C)C(=O)CN(C)C1=O` [Compound 592] ([NMeL]I[Sar][Sar][NMeCha][Sar][hPhe(3-Cl-4-CF3)][X25][Ac5c][NMeChg][NMeD]-Piperidide; lactam N-11): more than 500 nM and 26 nM.
In the case of `CCO[C@@H]1C[C@H]2C(=O)NC3(CCC3)C(=O)N(C)[C@@H](C3CCCC3)C(=O)N(C)[C@H](C)CC(=O)N(C)[C@@H](CC(C)C)C(=O)N[C@@H]([C@@H](C)CC)C(=O)N(C)[C@@H](C)C(=O)N3CC[C@H]3C(=O)N(CC)[C@@H](Cc3ccc(C(F)(F)F)cc3)C(=O)N(C)CC(=O)N[C@@H](CCc3ccc(C(F)(F)F)c(Cl)c3)C(=O)N2C1` [Compound 594] (cyclo([Ac4c][NMeGly(cPent)][NMedβ3hAla][NMeL]I[NMeA][Aze][NEtPhe(4-CF3)][Sar][hPhe(3-Cl-4-CF3)][Hyp](Et))), the IC50 in experiment [1] was not above 20 nM; in experiment [2], 0.54 nM.
Regarding `CC[C@H](C)[C@@H]1NC(=O)[C@H](CC(C)C)N(C)C(=O)C[C@@H](C)NC(=O)[C@H](C2CCCC2)N(C)C(=O)[C@@H](C(C)C)NC(=O)[C@@H]2CCCN2C(=O)[C@H](CCc2ccc(C(F)(F)F)c(Cl)c2)NC(=O)CN(C)C(=O)[C@H](Cc2ccc(C)cc2)N(C)C(=O)[C@@H]2CCN2C(=O)[C@H](C)N(C)C1=O` [Compound 598] (cyclo([Aze][NMePhe(4-Me)][Sar][hPhe(3-Cl-4-CF3)]P[dV][NMeGly(cPent)][d(β3hA)][NMeL]I[NMeA])), the IC50 in experiment [1] was more than 500 nM; in experiment [2], 300 nM.
